Measured values as given in patent publication US20060079453A1, “Hla binding peptides and their uses” (priority 2002, published 2006).
No end group written: not given here.

What follows are sequences tested against HLA-A*0301 (Homo sapiens, UniProt P04439) (assay: biochemical).
Type: binding
AVKDLCIVYR was tested, and the IC50 was 841 nM. Work on VTIRIGGQLK yielded an IC50 of 51 nM. RVHSIAGQYR gave an IC50 of 31 nM. SFYGTTLEK showed an IC50 of 34 nM. TSVHEIELR was tested, and the IC50 was > 64300 nM. AFCWRPRRR gave an IC50 of 273 nM. For RLFEESLGIR, the IC50 was 64 nM. With RFLSKISEYY the IC50 was 1700 nM. In the case of SFYGKTLEER, the IC50 is reported as 642 nM. GFNHQHLPAR was tested, and the IC50 was > 46600 nM. KTLGISYGRK was tested, and the IC50 was 36 nM. Work on LVFSNVLCFR yielded an IC50 of 120 nM. In the case of LVYSKVRKYR, the IC50 is reported as 320 nM. Work on QMAGPGPGFK yielded an IC50 of 9.4 nM. For SLFGPGPGK, the IC50 was 3.4 nM. EQRLPLLPK gave an IC50 of 1090 nM. Work on FVVQLDIQSTK yielded an IC50 of 3680 nM. Work on DSIPHAACHR yielded an IC50 of 2770 nM. Sequence LLFYSKVRR has an IC50 of 56 nM.

These sequences were tested against HLA-A*1101 (Homo sapiens, UniProt P04439, A114D/D185E/E176A/F33Y/L180Q/S129P/T187R) (assay: biochemical).
Type: binding
Sequence FAFTDLTIVY has an IC50 of 21200 nM. Work on VTVGPGPGVWK yielded an IC50 of 2.7 nM. For KFIDFYSRIR, the IC50 was 9010 nM. Work on KQHTCYLIR yielded an IC50 of 213 nM. AVKDLCIVYR was tested, and the IC50 was 66 nM. Sequence VTIRIGGQLK has an IC50 of 14 nM. RVHSIAGQYR showed an IC50 of 34 nM. In the case of GLYNLLIRCLR, the IC50 is reported as 1570 nM. Sequence SFYGTTLEK has an IC50 of 15 nM. TSVHEIELR gave an IC50 of 872 nM. For AFCWRPRRR, the IC50 was 17900 nM. RLFEESLGIR was tested, and the IC50 was 1100 nM. Sequence KFSEYRHYCY has an IC50 of 7480 nM. RFLSKISEYY gave an IC50 of 25500 nM. SFYGKTLEER showed an IC50 of 205 nM. For GFNHQHLPAR, the IC50 was 27900 nM. KILIKIPVTK was tested, and the IC50 was 60 nM. Work on KTLGISYGRK yielded an IC50 of 79 nM. With TVGPGPGPEK the IC50 was 17 nM. LVFSNVLCFR gave an IC50 of 19 nM. RFEDPTRRPYK was tested, and the IC50 was 432 nM. Sequence MQSSFFMNR has an IC50 of 1.1 nM. RFCLLFYSK gave an IC50 of 484 nM. Work on VVHAQLPAR yielded an IC50 of 127 nM. GTRQTRKNK gave an IC50 of 3100 nM. For ATTDLTIVYR, the IC50 was 10 nM. In the case of LVYSKVRKYR, the IC50 is reported as 619 nM. QMAGPGPGFK was tested, and the IC50 was 6.2 nM. LVYRDDFPK was tested, and the IC50 was 13 nM. GVLDGLIYSK gave an IC50 of 21 nM. Work on SLFGPGPGK yielded an IC50 of 2.3 nM. ILDLWVYK showed an IC50 of 320 nM. In the case of EQRLPLLPK, the IC50 is reported as 765 nM. FVVQLDIQSTK showed an IC50 of 853 nM. DSIPHAACHR showed an IC50 of 853 nM. Work on LLFYSKVRR yielded an IC50 of 73 nM.

Each sequence was assayed against HLA-A*3101 (Homo sapiens, UniProt P04439, A270S/D185E/E176V/E277Q/F33T/G231S/G80R/H175R/I121M/I218V/I322F/K168Q/L300P/L318F/M331R/P217A/Q94H/R138Q/T323A/T345S/T97I/V358M) (assay: biochemical).
Type: binding
FAFTDLTIVY gave an IC50 of 42100 nM. VTVGPGPGVWK gave an IC50 of 2730 nM. With KFIDFYSRIR the IC50 was 3.3 nM. Sequence KQHTCYLIR has an IC50 of 13 nM. In the case of AVKDLCIVYR, the IC50 is reported as 7.3 nM. VTIRIGGQLK showed an IC50 of 4460 nM. Sequence RVHSIAGQYR has an IC50 of 7.6 nM. GLYNLLIRCLR was tested, and the IC50 was 250 nM. SFYGTTLEK was tested, and the IC50 was 517 nM. Work on TSVHEIELR yielded an IC50 of 1040 nM. For AFCWRPRRR, the IC50 was 60 nM. Sequence RLFEESLGIR has an IC50 of 297 nM. KFSEYRHYCY gave an IC50 of 308 nM. Work on RFLSKISEYY yielded an IC50 of 14 nM. With SFYGKTLEER the IC50 was 17 nM. With GFNHQHLPAR the IC50 was 173 nM. With KILIKIPVTK the IC50 was 1660 nM. KTLGISYGRK gave an IC50 of 841 nM. Sequence TVGPGPGPEK has an IC50 of 10100 nM. LVFSNVLCFR showed an IC50 of 33 nM. With RFEDPTRRPYK the IC50 was 53 nM. MQSSFFMNR was tested, and the IC50 was 29 nM. Work on RFCLLFYSK yielded an IC50 of 83 nM. In the case of VVHAQLPAR, the IC50 is reported as 3.4 nM. In the case of GTRQTRKNK, the IC50 is reported as 13400 nM. In the case of ATTDLTIVYR, the IC50 is reported as 34 nM. With LVYRDDFPK the IC50 was 3010 nM. For GVLDGLIYSK, the IC50 was 6010 nM. Sequence ILDLWVYK has an IC50 of 13700 nM.

The sequences below were run against HLA-A*3301 (Homo sapiens, UniProt P04439, A270S/D185E/E176V/E277Q/E87N/F33T/G231S/H175R/I121M/I218V/I322F/K168Q/K210R/L300P/L318F/M331R/P217A/Q86R/Q94H/R138Q/T323A/T345S/T97I/V358M/Y195H) (assay: biochemical).
Type: binding
Work on FAFTDLTIVY yielded an IC50 of 131000 nM. VTVGPGPGVWK showed an IC50 of 75400 nM. With KFIDFYSRIR the IC50 was 677 nM. KQHTCYLIR gave an IC50 of 2280 nM. AVKDLCIVYR showed an IC50 of 8 nM. For VTIRIGGQLK, the IC50 was 65800 nM. RVHSIAGQYR was tested, and the IC50 was 812 nM. GLYNLLIRCLR gave an IC50 of 401 nM. SFYGTTLEK was tested, and the IC50 was 3380 nM. In the case of TSVHEIELR, the IC50 is reported as 5950 nM. For AFCWRPRRR, the IC50 was 75 nM. In the case of RLFEESLGIR, the IC50 is reported as 788 nM. Sequence KFSEYRHYCY has an IC50 of 49400 nM. RFLSKISEYY was tested, and the IC50 was 41100 nM. Work on SFYGKTLEER yielded an IC50 of 66 nM. Work on GFNHQHLPAR yielded an IC50 of 5570 nM. In the case of KILIKIPVTK, the IC50 is reported as 25000 nM. KTLGISYGRK gave an IC50 of 42400 nM. In the case of TVGPGPGPEK, the IC50 is reported as 98200 nM. LVFSNVLCFR gave an IC50 of 19 nM. RFEDPTRRPYK showed an IC50 of 1760 nM. MQSSFFMNR showed an IC50 of 75 nM. In the case of RFCLLFYSK, the IC50 is reported as 450 nM. In the case of VVHAQLPAR, the IC50 is reported as 12 nM. In the case of GTRQTRKNK, the IC50 is reported as > 29700 nM. Sequence ATTDLTIVYR has an IC50 of 1740 nM. For LVYSKVRKYR, the IC50 was 49 nM. QMAGPGPGFK showed an IC50 of 4780 nM. With LVYRDDFPK the IC50 was 1970 nM. In the case of GVLDGLIYSK, the IC50 is reported as > 25200 nM. SLFGPGPGK showed an IC50 of 82300 nM. In the case of ILDLWVYK, the IC50 is reported as 30100 nM. For EQRLPLLPK, the IC50 was 987 nM. FVVQLDIQSTK showed an IC50 of 31400 nM. Work on DSIPHAACHR yielded an IC50 of 2.2 nM. In the case of LLFYSKVRR, the IC50 is reported as 276 nM.

Each sequence was assayed against HLA-A*6801 (Homo sapiens, UniProt P04439, A269V/D185E/E176V/E277Q/E87N/F33Y/G231S/I121M/I166T/I218V/L180W/L300P/L318F/N151K/P208A/P217A/Q86R/R169H/T345S) (assay: biochemical).
Type: binding
FAFTDLTIVY gave an IC50 of 346 nM. With VTVGPGPGVWK the IC50 was 21 nM. For KFIDFYSRIR, the IC50 was 2550 nM. For KQHTCYLIR, the IC50 was 12200 nM. Work on AVKDLCIVYR yielded an IC50 of 6.5 nM. Sequence VTIRIGGQLK has an IC50 of 25 nM. Sequence RVHSIAGQYR has an IC50 of 28 nM. For GLYNLLIRCLR, the IC50 was 1620 nM. SFYGTTLEK showed an IC50 of 498 nM. TSVHEIELR was tested, and the IC50 was 12 nM. Work on AFCWRPRRR yielded an IC50 of 1090 nM. RLFEESLGIR showed an IC50 of 409 nM. In the case of KFSEYRHYCY, the IC50 is reported as 14600 nM. Work on RFLSKISEYY yielded an IC50 of 4000 nM. For SFYGKTLEER, the IC50 was 42 nM. GFNHQHLPAR was tested, and the IC50 was 34600 nM. In the case of KILIKIPVTK, the IC50 is reported as 19600 nM. Sequence KTLGISYGRK has an IC50 of 1630 nM. With TVGPGPGPEK the IC50 was 23 nM. Sequence LVFSNVLCFR has an IC50 of 7.7 nM. Work on RFEDPTRRPYK yielded an IC50 of 7340 nM. MQSSFFMNR gave an IC50 of 3.8 nM. RFCLLFYSK gave an IC50 of 232 nM. Sequence VVHAQLPAR has an IC50 of 201 nM. With GTRQTRKNK the IC50 was 18700 nM. ATTDLTIVYR was tested, and the IC50 was 14 nM. With LVYSKVRKYR the IC50 was 31 nM. In the case of QMAGPGPGFK, the IC50 is reported as 30 nM. Work on LVYRDDFPK yielded an IC50 of 130 nM. GVLDGLIYSK was tested, and the IC50 was 831 nM. SLFGPGPGK gave an IC50 of 36 nM. ILDLWVYK was tested, and the IC50 was 12100 nM. Sequence EQRLPLLPK has an IC50 of 1910 nM. FVVQLDIQSTK gave an IC50 of 2.7 nM. DSIPHAACHR gave an IC50 of 27 nM. In the case of LLFYSKVRR, the IC50 is reported as 11 nM.
